Test results: patent US20260325533A1, “CDK INHIBITOR COMPOUNDS” (ALEKSIA THERAPEUTICS, INC., priority 2023, published 2026)
Where two headings read alike, the source gives them in different places.

What was measured:
Format in all cases: biochemical
CDK4/CCND3 = CDK4/CCND3 (Homo sapiens, UniProt P11802); test: CDK4 homogeneous time-resolved fluorescence (HTRF) kinase assay; settings: CDK4/CCND
Summary of the method: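 HTRF kinase assay, CDK4/CCND3 1.5 nM, ATP 1 mM, ULight-4E-BP1 peptide 50 nM, 23 °C, 60 min reaction after 20 min preincubation. Eu-anti-pThr37/46 antibody detection. 11-pt half-log curves from 10 μM → IC50.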

CDK2/CCNE1 = CDK2/CCNE1 (Homo sapiens, UniProt P24941); test: CDK2 homogeneous time-resolved fluorescence (HTRF) kinase assay; settings: CDK2/CCNE
Summary of the method: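 IC50 derived from 11-point, half-log dilutions (usually top 10 μM) of compound, 1% DMSO. Kinase (3 nM CDK2/CCNE1) was preincubated with compound 20 min, then phosphorylated 50 nM ULight-4E-BP1 peptide at 1 mM ATP for 60 min, 23 °C. Europium-antibody TR-FRET read after EDTA stop.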

CDK1/CCNB1 = CDK1/CCNB1 (Homo sapiens, UniProt P06493); test: CDK1 homogeneous time-resolved fluorescence (HTRF) kinase assay; settings: CDK1/CCNB
Chain of CDK1/CCNB1 (P06493 whole entry): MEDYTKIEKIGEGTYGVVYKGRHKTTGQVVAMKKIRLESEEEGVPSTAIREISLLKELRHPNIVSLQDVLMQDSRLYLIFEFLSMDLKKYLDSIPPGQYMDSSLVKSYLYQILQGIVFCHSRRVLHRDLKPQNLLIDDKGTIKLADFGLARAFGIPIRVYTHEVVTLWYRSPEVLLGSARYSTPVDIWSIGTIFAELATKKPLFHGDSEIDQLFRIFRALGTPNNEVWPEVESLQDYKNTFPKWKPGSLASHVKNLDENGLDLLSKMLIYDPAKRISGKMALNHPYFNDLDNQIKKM
Chain of CDK1/CCNB1 (P14635 whole entry partner): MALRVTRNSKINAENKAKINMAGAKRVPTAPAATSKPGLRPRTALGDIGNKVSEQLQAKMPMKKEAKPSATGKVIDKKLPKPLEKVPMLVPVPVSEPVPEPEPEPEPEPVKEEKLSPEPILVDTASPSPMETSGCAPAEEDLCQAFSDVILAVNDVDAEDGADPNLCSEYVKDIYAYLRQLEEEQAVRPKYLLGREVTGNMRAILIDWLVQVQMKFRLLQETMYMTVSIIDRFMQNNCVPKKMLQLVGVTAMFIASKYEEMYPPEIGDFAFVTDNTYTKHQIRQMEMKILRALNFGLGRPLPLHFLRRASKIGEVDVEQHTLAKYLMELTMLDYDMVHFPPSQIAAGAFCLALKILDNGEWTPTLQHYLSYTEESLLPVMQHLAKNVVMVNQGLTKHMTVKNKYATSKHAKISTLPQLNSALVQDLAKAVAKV
Summary of the method: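 Compounds, titrated 11 points in half-log steps typically from 10 μM, were incubated with enzyme for 20 min before ATP (1 mM) and ULight-labelled eIF4E-binding protein 1 peptide (50 nM) started a 60-min reaction at 23 °C. Phosphopeptide was detected by europium-antibody TR-FRET and IC50 values were derived.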

CDK6/CCND1 = CDK6/CCND1 (Homo sapiens, UniProt Q00534); test: CDK6 homogeneous time-resolved fluorescence (HTRF) kinase assay; settings: CDK6/CCND
Chain of CDK6/CCND1 (Q00534 whole entry): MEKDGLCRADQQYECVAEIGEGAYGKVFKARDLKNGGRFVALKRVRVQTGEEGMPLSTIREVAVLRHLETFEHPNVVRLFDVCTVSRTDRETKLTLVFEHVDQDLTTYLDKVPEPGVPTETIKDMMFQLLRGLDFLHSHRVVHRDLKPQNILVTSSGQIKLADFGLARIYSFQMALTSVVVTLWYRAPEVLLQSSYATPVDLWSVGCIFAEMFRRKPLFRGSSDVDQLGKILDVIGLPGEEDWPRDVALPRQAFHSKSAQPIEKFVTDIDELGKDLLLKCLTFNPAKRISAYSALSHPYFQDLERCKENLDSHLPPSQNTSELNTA
Chain of CDK6/CCND1 (P24385 whole entry partner): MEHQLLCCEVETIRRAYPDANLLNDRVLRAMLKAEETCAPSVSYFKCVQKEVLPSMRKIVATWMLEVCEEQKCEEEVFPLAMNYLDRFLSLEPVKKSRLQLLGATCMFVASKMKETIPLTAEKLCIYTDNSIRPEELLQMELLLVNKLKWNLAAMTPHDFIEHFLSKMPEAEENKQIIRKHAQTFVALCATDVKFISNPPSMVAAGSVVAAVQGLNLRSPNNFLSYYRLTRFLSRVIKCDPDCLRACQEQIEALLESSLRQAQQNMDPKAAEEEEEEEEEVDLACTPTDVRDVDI
Summary of the method: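 Recombinant CDK6/CCND1 (1 nM final) was preincubated with compound for 20 min at 23 °C in HEPES buffer with MgCl2, EGTA, DTT and Tween 20. Kinase reaction then ran 60 min at 23 °C with 1 mM ATP and 50 nM ULight-4E-BP1 (Thr37/46) peptide, and was stopped with EDTA.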

[1] = >250 nM marked x, read-out: CDK4/CCND IC50 >250 nM
[2] = <25 nM, read-out: CDK2/CCNE IC50 <25 nM
[3] = 25-250 nM marked x, read-out: CDK1/CCNB IC50 25-250 nM
[4] = >250 nM marked x, read-out: CDK6/CCND IC50 >250 nM
[5] = x = IC50 25-250 nM, read-out: CDK4/CCND IC50 (25-250 nM)
[6] = x = IC50 <25 nM, read-out: CDK2/CCNE IC50 (<25 nM)
[7] = x = IC50 25-250 nM, read-out: CDK1/CCNB IC50 (25-250 nM)
[8] = x = IC50 >250 nM, read-out: CDK6/CCND IC50 (>250 nM column)
[9] = x = IC50 >250 nM, read-out: CDK4/CCND IC50 (>250 nM column)
[10] = x = IC50 >250 nM, read-out: CDK1/CCNB IC50 (>250 nM column)
[11] = x = IC50 25-250 nM, read-out: CDK6/CCND IC50 (25-250 nM)

Chain of CDK4/CCND3 (P11802 whole entry): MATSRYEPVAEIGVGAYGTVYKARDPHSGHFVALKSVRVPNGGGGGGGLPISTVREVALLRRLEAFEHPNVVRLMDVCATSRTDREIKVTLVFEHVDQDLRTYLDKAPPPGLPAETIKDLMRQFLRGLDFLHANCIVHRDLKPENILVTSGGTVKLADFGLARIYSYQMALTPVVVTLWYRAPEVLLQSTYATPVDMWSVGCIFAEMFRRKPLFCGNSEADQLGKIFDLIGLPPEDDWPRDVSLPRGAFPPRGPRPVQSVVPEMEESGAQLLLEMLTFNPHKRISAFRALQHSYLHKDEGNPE
Chain of CDK4/CCND3 (P30281 whole entry partner): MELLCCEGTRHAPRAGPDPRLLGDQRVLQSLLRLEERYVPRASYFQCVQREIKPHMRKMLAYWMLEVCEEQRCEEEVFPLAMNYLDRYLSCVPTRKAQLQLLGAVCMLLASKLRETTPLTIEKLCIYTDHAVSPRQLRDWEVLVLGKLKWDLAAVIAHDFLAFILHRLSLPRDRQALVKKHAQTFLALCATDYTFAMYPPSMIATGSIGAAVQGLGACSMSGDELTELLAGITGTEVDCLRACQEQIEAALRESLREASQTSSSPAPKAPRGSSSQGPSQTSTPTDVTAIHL

SMILES | IC50 (CDK4/CCND3; [5]) | IC50 (CDK2/CCNE1; [6]) | IC50 (CDK1/CCNB1; [7]) | IC50 (CDK6/CCND1; [8]) | other results
CCC1(CC)C(=O)Nc2cc(C#Cc3nccc4cnc(Nc5ccc(S(C)(=N)=O)cc5C)cc34)ccc21 (single isomer, unassigned) [Ex 336, 3,3-diethyl-6-((7-((2-methyl-4-(S-methylsulfonimidoyl)phenyl)amino)-2,6-naphthyridin-1-yl)ethynyl)indolin-2-one] |  |  |  |  | IC50 (CDK4/CCND3; [1]): > 250 nM; IC50 (CDK2/CCNE1; [2]): < 25 nM; IC50 (CDK1/CCNB1; [3]): 25 to 250 nM; IC50 (CDK6/CCND1; [4]): > 250 nM
CCC1(CC)C(=O)Nc2cc(C#Cc3nccc4cnc(Nc5ccc(S(=N)(=O)C6CC6)cc5)cc34)ccc21 (single isomer, unassigned) [Ex 339, 6-((7-((4-(cyclopropanesulfonimidoyl)phenyl)amino)-2,6-naphthyridin-1-yl)ethynyl)-3,3-diethylindolin-2-one] |  |  |  |  | IC50 (CDK4/CCND3; [1]): > 250 nM; IC50 (CDK2/CCNE1; [2]): < 25 nM; IC50 (CDK1/CCNB1; [3]): 25 to 250 nM; IC50 (CDK6/CCND1; [4]): > 250 nM
CCC1(CC)C(=O)Nc2cc(C#Cc3nccc4cnc(Nc5ccc(S(=N)(=O)C(C)C)cc5OC)cc34)ccc21 (single isomer, unassigned) [Ex 340, 3,3-diethyl-6-((7-((2-methoxy-4-(propan-2-ylsulfonimidoyl)phenyl)amino)-2,6-naphthyridin-1-yl)ethynyl)indolin-2-one] |  |  |  |  | IC50 (CDK4/CCND3; [1]): > 250 nM; IC50 (CDK2/CCNE1; [2]): < 25 nM; IC50 (CDK1/CCNB1; >250 nM marked x, read-out: CDK1/CCNB IC50 >250 nM): > 250 nM; IC50 (CDK6/CCND1; [4]): > 250 nM
N=S(=O)(c1ccc(Nc2cc3c(C#Cc4ccc5c(c4)NC(=O)C54CCC4)nccc3cn2)cc1)C1CC1 (single isomer, unassigned) [Ex 344, 6'-((7-((4-(cyclopropanesulfonimidoyl)phenyl)amino)-2,6-naphthyridin-1-yl)ethynyl)spiro[cyclobutane-1,3'-indolin]-2'-one] | 25 to 250 nM | < 25 nM | 25 to 250 nM | > 250 nM | 
COc1cc(S(=N)(=O)C(C)C)ccc1Nc1cc2c(C#Cc3ccc4c(c3)NC(=O)C43CCC3)nccc2cn1 (single isomer, unassigned) [Ex 345, 6'-((7-((2-methoxy-4-(propan-2-ylsulfonimidoyl)phenyl)amino)-2,6-naphthyridin-1-yl)ethynyl)spiro[cyclobutane-1,3'-indolin]-2'-one] |  | < 25 nM |  | > 250 nM | IC50 (CDK4/CCND3; [9]): > 250 nM; IC50 (CDK1/CCNB1; [10]): > 250 nM
CC(C)S(=N)(=O)c1ccc(Nc2cc3c(C#Cc4cc5c(cc4N)C(C)(C)C(=O)N5)nccc3cn2)cc1 (single isomer, unassigned) [Ex 349, 5-amino-3,3-dimethyl-6-((7-((4-(propan-2-ylsulfonimidoyl)phenyl)amino)-2,6-naphthyridin-1-yl)ethynyl)indolin-2-one] | 25 to 250 nM | < 25 nM | 25 to 250 nM | > 250 nM | 
N=S(=O)(c1ccc(Nc2cc3c(C#Cc4ccc5c(c4)NC(=O)C54CC4)nccc3cn2)cc1)C1CCC1 (single isomer, unassigned) [Ex 350, 6'-((7-((4-(cyclobutanesulfonimidoyl)phenyl)amino)-2,6-naphthyridin-1-yl)ethynyl)spiro[cyclopropane-1,3'-indolin]-2'-one] |  | < 25 nM | 25 to 250 nM |  | IC50 (CDK4/CCND3; x = IC50 <25 nM, read-out: CDK4/CCND IC50 (<25 nM)): < 25 nM; IC50 (CDK6/CCND1; [11]): 25 to 250 nM
CC(C)S(=N)(=O)c1ccc(Nc2cc3c(C#Cc4ccc5c(c4)NC(=O)C54CC4)nccc3cn2)cc1 (single isomer, unassigned) [Ex 354, 6'-((7-((4-(propan-2-ylsulfonimidoyl)phenyl)amino)-2,6-naphthyridin-1-yl)ethynyl)spiro[cyclopropane-1,3'-indolin]-2'-one] | 25 to 250 nM | < 25 nM | 25 to 250 nM |  | IC50 (CDK6/CCND1; [11]): 25 to 250 nM
CS(=N)(=O)c1ccc(Nc2cc3c(C#Cc4ccc5c(c4)NC(=O)C54CC4)nccc3cn2)cc1 (single isomer, unassigned) [Ex 358, 6'-((7-((4-(S-methylsulfonimidoyl)phenyl)amino)-2,6-naphthyridin-1-yl)ethynyl)spiro[cyclopropane-1,3'-indolin]-2'-one] | 25 to 250 nM | < 25 nM | 25 to 250 nM | > 250 nM | 
N=S(=O)(c1ccc(Nc2cc3c(C#Cc4ccc5c(c4)NC(=O)C54CCC4)nccc3cn2)cc1)C1CCC1 (single isomer, unassigned) [Ex 363, 6'-((7-((4-(cyclobutanesulfonimidoyl)phenyl)amino)-2,6-naphthyridin-1-yl)ethynyl)spiro[cyclobutane-1,3'-indolin]-2'-one] | 25 to 250 nM | < 25 nM | 25 to 250 nM |  | IC50 (CDK6/CCND1; [11]): 25 to 250 nM
CCS(=N)(=O)c1ccc(Nc2cc3c(C#Cc4ccc5c(c4)NC(=O)C54CCC4)nccc3cn2)cc1 (single isomer, unassigned) [Ex 366, 6'-((7-((4-(ethylsulfonimidoyl)phenyl)amino)-2,6-naphthyridin-1-yl)ethynyl)spiro[cyclobutane-1,3'-indolin]-2'-one] | 25 to 250 nM | < 25 nM | 25 to 250 nM |  | IC50 (CDK6/CCND1; [11]): 25 to 250 nM
CS(=N)(=O)c1ccc(Nc2cc3c(C#Cc4ccc5c(c4)NC(=O)C54CCC4)nccc3cn2)cc1 (single isomer, unassigned) [Ex 368, 6'-((7-((4-(S-methylsulfonimidoyl)phenyl)amino)-2,6-naphthyridin-1-yl)ethynyl)spiro[cyclobutane-1,3'-indolin]-2'-one] | 25 to 250 nM | < 25 nM | 25 to 250 nM | > 250 nM | 
CC(C)S(=N)(=O)c1ccc(Nc2cc3c(C#Cc4ccc5c(c4)NC(=O)C54CCC4)nccc3cn2)cc1 (single isomer, unassigned) [Ex 383, 6'-((7-((4-(propan-2-ylsulfonimidoyl)phenyl)amino)-2,6-naphthyridin-1-yl)ethynyl)spiro[cyclobutane-1,3'-indolin]-2'-one] | 25 to 250 nM | < 25 nM | 25 to 250 nM |  | IC50 (CDK6/CCND1; [11]): 25 to 250 nM
CC(C)S(=N)(=O)c1ccc(Nc2cc3c(C#Cc4cccnc4N)nccc3cn2)cc1 (single isomer, unassigned) [Ex 402, (4-((5-((2-aminopyridin-3-yl)ethynyl)-2,6-naphthyridin-3-yl)amino)phenyl)(imino)(isopropyl)-l6-sulfanone] |  |  |  | > 250 nM | IC50 (CDK4/CCND3; [9]): > 250 nM; IC50 (CDK2/CCNE1; x = IC50 25-250 nM, read-out: CDK2/CCNE IC50 (25-250 nM)): 25 to 250 nM; IC50 (CDK1/CCNB1; [10]): > 250 nM
CCC1(CC)C(=O)Nc2cc(C#Cc3nccc4cnc(Nc5ccc(S(=N)(=O)C6CC6)cc5)cc34)ccc21 (single isomer, unassigned) [Ex 410, 6-((7-((4-(cyclopropanesulfonimidoyl)phenyl)amino)-2,6-naphthyridin-1-yl)ethynyl)-3,3-diethylindolin-2-one] | 25 to 250 nM | < 25 nM | 25 to 250 nM | > 250 nM | 
CCC1(CC)C(=O)Nc2cc(C#Cc3nccc4cnc(Nc5ccc(S(=N)(=O)CC)cc5)cc34)ccc21 (single isomer, unassigned) [Ex 411, 3,3-diethyl-6-((7-((4-(ethylsulfonimidoyl)phenyl)amino)-2,6-naphthyridin-1-yl)ethynyl)indolin-2-one] |  | < 25 nM | 25 to 250 nM | > 250 nM | IC50 (CDK4/CCND3; [9]): > 250 nM
CCC1(CC)C(=O)Nc2cc(C#Cc3nccc4cnc(Nc5ccc(S(=N)(=O)C6CCC6)cc5)cc34)ccc21 (single isomer, unassigned) [Ex 412, 6-((7-((4-(cyclobutanesulfonimidoyl)phenyl)amino)-2,6-naphthyridin-1-yl)ethynyl)-3,3-diethylindolin-2-one] | 25 to 250 nM | < 25 nM |  | > 250 nM | IC50 (CDK1/CCNB1; [10]): > 250 nM
CCC1(CC)C(=O)Nc2cc(C#Cc3nccc4cnc(Nc5ccc(S(=N)(=O)C(C)C)cc5)cc34)ccc21 (single isomer, unassigned) [Ex 414, 3,3-diethyl-6-((7-((4-(propan-2-ylsulfonimidoyl)phenyl)amino)-2,6-naphthyridin-1-yl)ethynyl)indolin-2-one] |  | < 25 nM |  | > 250 nM | IC50 (CDK4/CCND3; [9]): > 250 nM; IC50 (CDK1/CCNB1; [10]): > 250 nM
